The results in this text go back to US20230232830A1, “METHOD FOR REDUCING OR PREVENTING EFFECT OF NON-BIOLOGICAL STRESS ON PLANT” (NIPPON SODA CO., LTD., priority 2020, published 2023).

Series [1] deals with corn. The experiment in a line: Bioassay 1, drought stress, corn test (foliage spray, degree of withering). The settings on record: 200 ppm foliage spray; for Withering Index: 2 to 3 leaf stage, 2 days at 25° C., aerial parts cut out, four stages (0: healthy to 3: complete withering), average of test series. Format: in vivo. As for the experimental part: (§1) A 5-membered heterocyclyl compound dissolved in DMF was diluted with water so that the concentration of the compound was 200 ppm, and a sufficient amount of the diluted solution was foliage-sprayed on corn and soybean at the 2 to 3 leaf stage.
(§2) Corn and soybean foliage-sprayed with a sufficient amount of a diluted solution prepared by removing the compound were used as the untreated plot.
(§3) The sprayed test plants were cultivated for 2 days under the conditions of a temperature of 25° C. and a day length of 14 hours.
(§4) The aerial parts were cut out and the corn or soybean of the untreated plot was left to stand until completely withered. The degree of withering was investigated from the perspective of four stages (0: healthy to 3: complete withering).
As for corn, it refers to a bent state.
(§5) Abscisic acid was used as a control. Abscisic acid (ABA), known as a plant hormone, is produced by the plant itself and is known as an important signal substance that closes the stomata during drought stress to suppress excessive transpiration of water from the leaves, and induces stress tolerance.
The index of ABA indicates the average of the results of a series of 10 tests. The index of the 5-membered heterocyclyl compounds (A) to (F) indicates the average of the results of a series of 2 tests.

The test system of series [2] is Arabidopsis thaliana. The series is described as follows: Bioassay 2, salt stress, survival of Arabidopsis thaliana plants in 150 mM NaCl. Format: in vivo. The note with it: 168 h, 5 ppm compound for 1 day, then 150 mM NaCl for 7 days, green individuals alive, yellowed or bleached dead, read-out: Survival Rate (%). On the procedure:
Arabidopsis thaliana seeds were sterilized with 70% ethanol and then sown in a petri dish containing HYPONeX (sterilized) diluted 4,000 times with water. The compound was diluted with sterile water so that the concentration of the compound dissolved in DMSO was 5 ppm. 65 μl of each drug solution was dispensed into a 96-well microplate, into which 5 Arabidopsis thaliana plants on their 8th day of sowing were placed and left to stand for 1 day. The next day, the plants were transferred to a well containing 65 μl of 150 mM NaCl and cultured for 7 days. The treatment was performed in two series, and in the investigation, a stereomicroscope was used to determine their survival, with the green individuals identified as alive and the yellowed or bleached individuals as dead.

Series [3] deals with soybean. The series is described as follows: Bioassay 1, drought stress, soybean test (foliage spray, degree of withering). In kind it is in vivo. The note with it: 200 ppm foliage spray; for Withering Index: 2 to 3 leaf stage, 2 days at 25° C., aerial parts cut out, four stages (0: healthy to 3: complete withering), average of test series. As for the experimental part: as §1, §2, §3, §4
Here, with respect to soybean, complete withering refers to a state in which all the leaves of the soybean are withered and the upper part is curved.
as §5
The index of ABA indicates the average of the results of a series of 10 tests. The index of the 5-membered heterocyclyl compound (F) indicates the average of the results of a series of 2 tests.

Each structure is given as a SMILES string.

In the case of `CON=C(C)c1ccc(C2=NOC(OC)(C(F)(F)F)C2)cc1` (centres unmarked) [Compound 9], the melting point was in the range of 80 to 82 °C. Besides, the “Withering Index” value in series [1] was 1.5. The corresponding values for `COc1cncn(Cc2ccc(-c3noc(C(F)(F)F)n3)cc2)c1=O` [Compound 10] are 119 to 120 °C and 1.0. As for `CON=C1CN(c2cc(=O)n(Cc3ccc(-c4noc(C(F)(F)F)n4)cc3)cn2)C1` [Compound 3], the responders at 5 ppm in series [2] was 70%.

Turning to `O=c1c(Cl)c(Cl)cnn1Cc1ccc(-c2noc(C(F)(F)F)n2)cc1` [J], the “Withering Index” value in series [1] is given as 1.0. For the molecule `O=C1CCCCN1Cc1ccc(-c2noc(C(F)(F)F)n2)cc1` [M], in series [2], the responders at 5 ppm amounted to 70%. `N#CCON=C1CN(C(=O)Cc2ccc(-c3noc(C(F)(F)F)n3)cc2)C1` [A]: in series [1], the “Withering Index” value was 1.5. Turning to `CC1=CC(=O)CC(C)(C)[C@@]1(O)/C=C/C(C)=C\C(=O)O` [ABA, Abscisic acid, reference compound], the “Withering Index” value was found to be 1.1 in series [1] and 0.5 in series [3]. Take `CSc1nccc(OCc2ccc(-c3noc(C(F)(F)F)n3)cc2)n1` [Compound 5]: the responders at 5 ppm in series [2] came out at 80%. As to `O=C(NC12CC(C1)C2)c1ccc(-c2noc(C(F)(F)F)n2)cc1` [F], the results for the “Withering Index” value in series [1] and in series [3] were 0.5 and 1.5, respectively. For the same molecule, the “reduction of drought stress compared with ABA” value in series [1] (result in words) is reported as “showed an index higher than that of ABA”; in series [3] (result in words) it was “reduces the drought stress, although to a lesser extent than ABA”. With `O=c1cccnn1Cc1ccc(-c2noc(C(F)(F)F)n2)cc1` [C], in series [1], the “Withering Index” value came out at 1.5. Take `CC1(NC(=O)c2ccc(-c3noc(C(F)(F)F)n3)cc2)CC1` [E]: the “Withering Index” value in series [1] came out at 1.5. As for `CCOC(=O)c1ccnn1Cc1ccc(-c2noc(C(F)(F)F)n2)cc1` [L], the “Withering Index” value in series [3] was 1.5. `CC(=NOC/C=C/Cl)c1ccc(C2=NOC(O)(C(F)(F)F)C2)cc1` (centres unmarked) [Compound 8] displayed a melting point of 126 to 128 °C. In addition, the “Withering Index” value in series [1] amounted to 1.5. Regarding `CCON=C1CN(C(=O)C(OC)c2ccc(-c3noc(C(F)(F)F)n3)cc2)C1` (centres unmarked) [B], the “Withering Index” value in series [1] is reported as 1.5. As for `FC(F)(F)c1nc(-c2ccc(COc3cc(-n4cncn4)ncn3)cc2)no1` [Compound 7], the responders at 5 ppm in series [2] was found to be 70%.

Consider `C=CCON=C1CN(C(=O)Cc2ccc(-c3noc(C(F)(F)F)n3)cc2)C1` [Compound 2], for which, in series [2], the responders at 5 ppm was determined as 70%.

In the case of `O=C(NC1CC1)c1ccn(Cc2ccc(-c3noc(C(F)(F)F)n3)cc2)n1` [K], the “Withering Index” value in series [1] amounted to 1.0. `O=c1cc(OCc2ccc(-c3noc(C(F)(F)F)n3)cc2)ccn1CC1CC1` [Compound 4] showed a melting point of 115 to 117 °C. Further, the “Withering Index” value in series [3] worked out at 1.5. In turn, `COCCn1cccc(OCc2ccc(-c3noc(C(F)(F)F)n3)cc2)c1=O` [Compound 11] had a melting point of 127 to 130 °C. For the same molecule, the “Withering Index” value in series [1] is listed as 1.0. As for `CCON=C1CN(C(=O)C(OC)c2ccc(-c3noc(C(F)(F)F)n3)cc2F)C1` (centres unmarked) [Compound 1], in series [2], the responders at 5 ppm is 80%.

For `CCON=C1CN(C(=O)C(C)c2ccc(-c3noc(C(F)(F)F)n3)cc2)C1` (centres unmarked) [G], the responders at 5 ppm in series [2] was determined as 80%. In the case of `Cc1nc(C)n(Cc2ccc(-c3noc(C(F)(F)F)n3)cc2)c(=O)c1Cl` [H], the “Withering Index” value in series [1] was found to be 1.5. For `O=C(c1ccc(-c2noc(C(F)(F)F)n2)cc1)N1CCCCC1` [D], the “Withering Index” value in series [1] is recorded as 1.5. Further, the responders at 5 ppm in series [2] is 80%. `FC(F)(F)c1nc(-c2ccc(COc3cc(Cl)ncn3)cc2)no1` [Compound 6]: the melting point was 144 to 146 °C. Also, in series [1], the “Withering Index” value is on record as 1.0.
